Data taken from patent US5432165A, “Methods for the treatment of infection caused by Hepatitis B virus (HBV)” (priority 1992, dated 1995).
Where “and” joins values, the source holds several entries; their conditions need not be identical. Equal values may be shown once. Entries after “also recorded” stand apart in the source; their conditions may differ.

How the values were obtained:
Type in all cases: in vivo, human
[1] = system: hepatitis B virus (HBV); experiment: Effect of oral FIAU on plasma HBV DNA and HBV DNA polymerase in HIV-infected patients with chronic hepatitis B
Protocol: Effects on hepatitis were evaluated principally by changes in HBV DNA and viral DNA polymerase. Secondary markers were surface antigen and e antigen. The hepatitis tests were done at Baseline and on Days 3, 7, 14, 21 (7 days post-treatment) and 42 (28 days post-treatment).
Of the 13 "tolerance" patients, e.g., non-hepatitis patients, enrolled, all received the study drug and all are included in the safety analysis. […] They had received a single dose of the study drug, and has, therefore, been included in the safety analysis, but excluded from the efficacy analysis. All of the remaining hepatitis patients had sufficient baseline levels of HBV DNA (>20 pg/ml) and viral DNA polymerase (>300 cpm) in their serum to be useful for determining changes associated with FIAU dosing and all completed the full two weeks of dosing. Therefore, the remaining six hepatitis patients were included in both the safety and efficacy analyses.
The results of clinical investigations conducted at submilligram per kilogram daily doses of FIAU are presented below. […]

[2] = Oral FIAU in immune-competent patients with chronic hepatitis B: adverse experiences
Protocol: Consecutively qualifying patients will be used for each dose group and patients will not be assigned to dose based on either disease severity or expected tolerance. Tolerance will be determined with antiemetic therapy given concomitantly as necessary should a patient experience sustained nausea or two or more episodes of vomiting. Compazine, 10 mg p.o. Q6H or 25 mg p.r. Q12H will be used.
The side effects that will be monitored will include gastrointestinal irritation, bone marrow suppression, neurologic, and muscular toxicity.

[3] = system: hepatitis B virus; experiment: Oral FIAU in immune-competent patients with chronic hepatitis B: HBV DNA and HBV DNA polymerase; settings: for Number HBeAg-negative at latest follow-up: 6 patients with 1 month follow-up
Protocol: To assess the antiviral activity of FIAU against hepatitis B virus, up to 24 patients with chronic hepatitis B will be treated with oral FIAU in doses of 0.05, 0.10, 0.25 or 0.50 mg/kg-day in three divided doses daily for four weeks. Six patients, of which only three can be previous interferon failures, will be initially dosed at 0.10 mg/kg-day. Depending on tolerance and efficacy, the next six patients will be entered at 0.05 or 0.25 mg/kg-day.
This study is an open and uncontrolled evaluation of oral FIAU in the treatment of chronic hepatitis B. Up to four dose cohorts of six patients each will be sequentially studied starting at 0.10 mg/kg-day. Patients will take the medication three times per day for four weeks. Depending on efficacy and tolerance, the next dose cohort will be either 0.05 or 0.25 mg/kg-day.
Patients who meet the eligibility criteria will start on therapy, generally as outpatients one to two weeks after the in-hospital evaluation. Up to four doses will be sequentially evaluated. The initial six patients will receive 0.10 mg/kg-day for four weeks.
If tolerance is adequate at 0.10 mg/kg-day, six patients will receive 0.25 mg/kg-day for four weeks. The final six patients will receive 0.50 mg/kg-day for four weeks if needed for better efficacy and if tolerance has been adequate at the lower doses.
The FIAU will be administered by mouth in three equally divided doses daily. FIAU is provided as a 1 mg/ml syrup. Patients will be instructed on how to measure and self-administer the FIAU solution using oral dosing syringes. Dosing compliance will be monitored by measuring the residual FIAU solution returned at the weekly outpatient visit.
Activity of FIAU against hepatitis B virus will be assessed by monitoring levels of HBV DNA. An inhibition of HBV DNA activity of at least about 50% by the fourth week of treatment will be considered significant antiviral activity. The dose levels of FIAU will be compared based upon the degree of inhibition of serum levels of HBV DNA.

[4] = 0.1 mg/kg-day, two patients with HBV DNA under 1000 pg/ml
[5] = 0.5 mg/kg-day, four patients with entry HBV DNA <1000 pg/ml
[6] = 0.1 mpk, Day 1 (initial level), individual patients 1A-6A
[7] = 0.1 mpk, Day 3, individual patients 1A-6A
[8] = 0.1 mpk, Day 8, individual patients 1A-6A
[9] = 0.1 mpk, Week 2, individual patients 1A-6A
[10] = 0.1 mpk, Week 3, individual patients 1A-6A
[11] = 0.1 mpk, Week 4, individual patients 1A-6A
[12] = 0.1 mpk, Week 5 (after 4-week treatment), individual patients 1A-6A
[13] = 0.25 mpk, Day 1 (initial level), individual patients 1B-6B
[14] = 0.25 mpk, Day 3, individual patients 1B-6B
[15] = 0.25 mpk, Day 8, individual patients 1B-6B
[16] = 0.25 mpk, Week 2, individual patients 1B-6B

O=c1[nH]c(=O)n([C@@H]2O[C@H](CO)[C@@H](O)[C@@H]2F)cc1I [FIAU, 1-(2'-deoxy-2'-fluoro-β-D-arabinofuranosyl)-5-iodouracil]
average reduction of serum HBV DNA at Day 3 and One Week visits [1, 4]: 60% | average reduction of serum HBV DNA by end of therapy at two weeks [1, 4]: 93% | suppression of serum HBV DNA one week post-treatment [1, 4]: 86% | drop of HBV DNA by the end of therapy ([1]; 0.1 mg/kg-day, two patients with baseline over 1000 pg/ml): ≤ 25% | average HBV DNA level, percent of baseline, end of one week of dosing [1, 5]: less than 20% | average HBV DNA level, percent of baseline, end of two week treatment [1, 5]: less than 10% | drop of average serum HBV DNA after the first two days of therapy [1, 5]: 61% | suppression of average HBV DNA one month post-treatment [1, 5]: over 75% | drop of serum HBV DNA in one week of therapy ([1]; 0.5 mg/kg-day, single patient with baseline above 1000 pg/ml): 83% | effect on plasma HBV DNA and viral DNA polymerase levels ([1]; 1.0 mg/kg-day): rapid, consistent, profound and prolonged effect | surface antigen and e antigen status ([1]; 1.0 mg/kg-day): remained positive in all patients to date, with one reported seroreversion of e antigen in Patient 401 approximately 23 weeks post-treatment | continuing suppression of HBV DNA polymerase in serum ([1]; 1.0 mg/kg-day, five of the six patients): > 80% | clearing of HBV DNA from the plasma ([1]; 1.0 mg/kg-day, four weeks after therapy): two of these became totally negative; also recorded: Two showed a complete clearing of HBV DNA from the plasma | average decrease of HBV DNA between Baseline (Day 1) and Day 3 ([1]; 1.0 mg/kg-day, six patients): over 70% | reduction in plasma HBV DNA by the end of therapy ([1]; 1.0 mg/kg-day, two weeks, five of the six patients): more than 90% | days on which mild fatigue was experienced ([2]; 0.05 mpk, patient 1C): Day 8 | days on which mild fatigue was experienced ([2]; 0.1 mpk, individual patients (footnotes a-d: 1A, 2A, 3A, 6A)): Days 3, 8, 14, 21, 28, and Week 5; also recorded: Days 7, 14, and 18 | days on which mild nausea was experienced ([2]; 0.1 mpk, patient 6A): Days 3, 7, 14, and 21 | days on which mild fatigue was experienced ([2]; 0.25 mpk, individual patients (footnotes e, g: 4B, 6B)): Days 14, 21, 28, Week 5, and Month 2 | days on which mild nausea was experienced ([2]; 0.25 mpk, patient 5B): Day 3 | mean reduction of HBV DNA serum level from initial levels at Week 4 ([3]; 0.05 mpk): 30% | Number HBeAg-negative at latest follow-up ([3]; 0.05 mpk): 0 | HBV DNA Polymerase (cpm) ([3]; 0.05 mpk, Day 1 (initial level), individual patients 1C, 2C): 1,318 cpm and 3,365 cpm | HBV DNA Polymerase (cpm) ([3]; 0.05 mpk, Day 3, individual patients 1C, 2C): 748 cpm and 1,509 cpm | HBV DNA Polymerase (cpm) ([3]; 0.05 mpk, Day 8, individual patients 1C, 2C): 348 cpm and 908 cpm | Mean % change of HBV DNA at Week 4 of FIAU ([3]; 0.05 mpk, n = 4): -31% | mean reduction of HBV DNA serum level from initial levels at Week 4 ([3]; 0.1 mpk): 88% | Number HBeAg-negative at latest follow-up ([3]; 0.1 mpk): 0 | HBV DNA [3, 6]: 68.1 pg/mL and 306.2 pg/mL and 307.7 pg/mL and 18.1 pg/mL and 71.3 pg/mL and 172.6 pg/mL | HBV DNA Polymerase (cpm) [3, 6]: 1208 cpm and 3340 cpm and 3,000 cpm and 1,500 cpm and 1,174 cpm | HBV DNA [3, 7]: 23.2 pg/mL and 110.6 pg/mL and 208.7 pg/mL and 12.3 pg/mL and 27.8 pg/mL and 75.6 pg/mL | HBV DNA Polymerase (cpm) [3, 7]: 348 cpm and 721 cpm and 1,550 cpm and 440 cpm and 251 cpm and 610 cpm | HBV DNA [3, 8]: 16.8 pg/mL and 100.1 pg/mL and 178.8 pg/mL and 8.8 pg/mL and 9.7 pg/mL and 27.6 pg/mL | HBV DNA Polymerase (cpm) [3, 8]: 119 cpm and 550 cpm and 843 cpm and 164 cpm and 145 cpm and 169 cpm | HBV DNA ([3]; 0.1 mpk, Month 1 (follow-up), individual patients 1A-6A): 4.3 pg/mL and 4.8 pg/mL and 34.2 pg/mL and 4.4 pg/mL and 18.6 pg/mL and 138.5 pg/mL | HBV DNA ([3]; 0.1 mpk, Month 2 (follow-up), individual patients 1A-6A): 13.8 pg/mL and 11.7 pg/mL and 58.4 pg/mL and 5.9 pg/mL and 26.1 pg/mL and 172.9 pg/mL | HBV DNA [3, 9]: 9.3 pg/mL and 94.5 pg/mL and 223.2 pg/mL and 7.3 pg/mL and 17.9 pg/mL and 25.2 pg/mL | HBV DNA Polymerase (cpm) [3, 9]: 90 cpm and 507 cpm and 977 cpm and 118 cpm and 136 cpm and 142 cpm | HBV DNA [3, 10]: 6.4 pg/mL and 42.2 pg/mL and 122.1 pg/mL and 3.2 pg/mL and 9.0 pg/mL and 22.8 pg/mL | HBV DNA Polymerase (cpm) [3, 10]: 144 cpm and 360 cpm and 303 cpm and 69 cpm and 86 cpm and 148 cpm | HBV DNA [3, 11]: 0.0 pg/mL and 31.4 pg/mL and 78.3 pg/mL and 2.5 pg/mL and 7.4 pg/mL and 21.8 pg/mL | HBV DNA Polymerase (cpm) [3, 11]: 93 cpm and 205 cpm and 310 cpm and 74 cpm and 99 cpm and 165 cpm | HBV DNA [3, 12]: 4.1 pg/mL and 42.4 pg/mL and 76.1 pg/mL and 8.7 pg/mL and 21.9 pg/mL and 67.9 pg/mL | HBV DNA Polymerase (cpm) [3, 12]: 84 cpm and 368 cpm and 657 cpm and 169 cpm and 127 cpm and 324 cpm | Mean % change of HBV DNA at Week 4 of FIAU ([3]; 0.1 mpk, n = 6): -88% | mean reduction of HBV DNA serum level from initial levels at Week 4 ([3]; 0.25 mpk): 84% | patients who "sero-converted" (failed to exhibit hepatitis B surface antigen) ([3]; 0.25 mpk): 2 of 6 | Number HBeAg-negative at latest follow-up ([3]; 0.25 mpk): 2 | HBV DNA [3, 13]: 975.8 pg/mL and 63.9 pg/mL and 799.1 pg/mL and 196.3 pg/mL and 110.3 pg/mL and 141.1 pg/mL | HBV DNA Polymerase (cpm) [3, 13]: 43,752 cpm and 835 cpm and 10,833 cpm and 2,752 cpm and 2,454 cpm and 7,422 cpm | HBV DNA [3, 14]: 742.7 pg/mL and 23 pg/mL and 472.3 pg/mL and 103.5 pg/mL and 40.4 pg/mL and 79.9 pg/mL | HBV DNA Polymerase (cpm) [3, 14]: 7,841 cpm and 182 cpm and 2,115 cpm and 1,302 cpm and 506 cpm and 1,482 cpm | HBV DNA [3, 15]: 718.9 pg/mL and 17.5 pg/mL and 204.2 pg/mL and 47.1 pg/mL and 15.9 pg/mL and 60.7 pg/mL | HBV DNA Polymerase (cpm) [3, 15]: 5,129 cpm and 81 cpm and 1,481 cpm and 213 cpm and 131 cpm and 772 cpm | HBV DNA ([3]; 0.25 mpk, Month 1 (follow-up), individual patients 1B-6B): 4.9 pg/mL and 23.4 pg/mL and 100.6 pg/mL and 242.5 pg/mL and 2.7 pg/mL | HBV DNA [3, 16]: 492.9 pg/mL and 8.0 pg/mL and 182.6 pg/mL and 32.4 pg/mL and 9.3 pg/mL and 26.6 pg/mL | HBV DNA Polymerase (cpm) [3, 16]: 3,395 cpm and 129 cpm and 2,752 cpm and 105 cpm and 45 cpm and 260 cpm | HBV DNA Polymerase (cpm) ([3]; 0.25 mpk, Week 3, individual patients 1B-3B): 2,012 cpm and 63 cpm and 1,602 cpm | HBV DNA ([3]; 0.25 mpk, Week 3, individual patients 1B-6B): 373.2 pg/mL and 10.6 pg/mL and 68.3 pg/mL and 31.1 pg/mL and 8.3 pg/mL and 44.2 pg/mL | HBV DNA Polymerase (cpm) ([3]; 0.25 mpk, Week 4, individual patients 1B-3B): 834 cpm and 42 cpm and 1,076 cpm | HBV DNA ([3]; 0.25 mpk, Week 4, individual patients 1B-6B): 237.9 pg/mL and 7.2 pg/mL and 69.6 pg/mL and 34.0 pg/mL and 7.9 pg/mL and 41.7 pg/mL | HBV DNA ([3]; 0.25 mpk, Week 5 (after 4-week treatment), individual patients 1B-6B): 376.3 pg/mL and 24.1 pg/mL and 6.4 pg/mL and 89.9 pg/mL and 6.8 pg/mL | Mean % change of HBV DNA at Week 4 of FIAU ([3]; 0.25 mpk, n = 6): -84% | reduction of the initial HBV DNA polymerase level ([3]; within the first few days, FIG. 20): 80-90%
